Laboratory results taken from patent US11998554B2, “Composition comprising lipoic acid and vitamin D for the prevention and the treatment of neurodegenerative diseases and peripheral neuropathies” (URIACH ITALY S.R.L., priority 2018, dated 2024).

Experiments:
astrocytes [1] = experiment: MTT cell viability in astrocytes pre-treated with Fe^3+; format: cell-based, mouse; conditions: for cell viability after post-treatment following Fe^3+ (in words): 300 μM Fe^3+ 6 days, then treatment another 6 days
astrocytes [2] = experiment: Production of ROS in astrocytes pre-treated with Fe^3+; format: cell-based, mouse; conditions: for reduction of production of ROS with respect to Fe^3+ alone: 300 μM Fe^3+ 6 days, then 50 μM LA, 100 nM vitD another 6 days
astrocytes [3] = experiment: Iron quantification assay in astrocytes pre-treated with Fe^3+; format: cell-based, mouse; conditions: for reduction of accumulation of iron against Fe^3+ alone: 300 μM Fe^3+ 6 days, then 50 μM LA, 100 nM vitD another 6 days
[4] = tested on: amyloid precursor protein (APP); experiment: Quantification of APP (ELISA) in astrocytes pre-treated with Fe^3+; format: cell-based, mouse; conditions: for reduction of level of APP against 300 μM Fe^3+: 300 μM Fe^3+ 6 days, then 50 μM LA, 100 nM vitD another 6 days
astrocytes [5] = experiment: MTT cell viability, dose- and time-dependent, physiological conditions; format: cell-based, mouse; conditions: 1440 min, 50 μM LA, 100 nM vitD
Method: The cultures of mouse astrocytes were prepared from male and female C57BL/6 baby mice, following a known conventional technique according to the national guidelines for the use and care of laboratory animals. Basically, within 24 hours from birth, the baby mice were euthanized and the corticals were cut, […] minced, mechanically digested and left to rest for 30 minutes at ambient temperature. The cell suspension was then centrifuged at 800 rpm (revolutions per minute) for 5 minutes. The pelleted cells were resuspended in neuronal basal medium (Sigma-Aldrich), supplemented with fetal bovine serum at 5% (FBS, Gibco), penicillin/streptomycin 1% (Sigma-Aldrich) and L-glutamine 2 mM (Sigma-Aldrich), placed in multiple wells and kept in culture for 6 days prior to the treatment. […] Cell viability was determined by measuring absorbance at 570 nm with correction at 690 nm, using a spectrometer (VICTOR X4, multi-label plate reader) and calculated by comparing the results with the control. […] Firstly, the effect depending on the concentration of LA alone (comprised between 10 μM and 100 μM) on the cell viability over 24 hours (starting from 15 minutes to 1440 minutes) was analysed, with the aim of identifying the best concentration to be used. FIG. 1(a) illustrates the time-dependent and dose-response studies (ranging from 10 μM to 100 μM) of LA measured in astrocytes.

astrocytes [6] = experiment: MTT cell viability under oxidative conditions (H2O2 pre-treatment); format: cell-based, mouse; conditions: for cell viability after post-treatment (in words): 200 μM H2O2 pre-treatment, then 50 μM LA, 100 nM vitD, 24 hours
astrocytes [7] = experiment: Production of ROS (superoxide anion release) under oxidative conditions; format: cell-based, mouse; conditions: for reduction of production of ROS with respect to H2O2 alone: post-treatment after 200 μM H2O2
astrocytes [8] = experiment: Mitochondrial membrane potential (JC-1) under oxidative conditions; format: cell-based, mouse; conditions: 50 μM LA, 100 nM vitD; for mitochondrial potential without H2O2 (in words): p<0.05; for dissipation of the mitochondrial potential after post-treatment, with respect to H2O2 alone (in words): after 200 μM H2O2
p53 [9] = experiment: Activity of p53 (ELISA on nuclear extracts) under oxidative conditions; format: cell-based, mouse; conditions: for activity of p53 without H2O2 vs control (in words): 50 μM LA, 100 nM vitD, p<0.05; for activity of p53 after H2O2 (in words): stimulation after 200 μM H2O2
cytochrome C = experiment: Western blot expression of cytochrome C under oxidative conditions; format: cell-based, mouse; conditions: for expression of cytochrome C without H2O2 (in words): 50 μM LA, 100 nM vitD; for expression of cytochrome C after H2O2 (in words): stimulation after H2O2, p<0.05
SOD3 [10] = experiment: Western blot expression of SOD3 under oxidative conditions; format: cell-based, mouse; conditions: post-stimulation after 200 μM H2O2
iNOS = experiment: Western blot expression of iNOS under oxidative conditions; format: cell-based, mouse; conditions: post-stimulation after 200 μM H2O2
PKA = experiment: Western blot expression of p-PKA under oxidative conditions; format: cell-based, mouse; conditions: for expression of PKA without H2O2 (in words): 50 μM LA, 100 nM vitD; for expression of PKA after H2O2 (in words): post-stimulation after 200 μM H2O2
ERK/MAPK [11] = experiment: ERK/MAPK activity (ELISA InstantOne) under oxidative conditions; format: cell-based, mouse; conditions: for ERK/MAPK activity without H2O2 (in words): 24 hours, 50 μM LA, 100 nM vitD; for ERK activity after post-treatment following H2O2 (in words): after 200 μM H2O2
PI3K-Akt = PI3K-Akt activity (ELISA InstantOne) under oxidative conditions; format: cell-based, mouse; conditions: for PI3K-Akt activity without H2O2 (in words): 24 hours, 50 μM LA, 100 nM vitD; for Akt activity after post-treatment following H2O2 (in words): after 200 μM H2O2
p53 [12] = experiment: Activity of p53 (ELISA) in astrocytes pre-treated with Fe^3+; format: cell-based, mouse; conditions: 300 μM Fe^3+ 6 days, then 50 μM LA, 100 nM vitD another 6 days
SOD3 [13] = experiment: Western blot expression of SOD3 in astrocytes pre-treated with Fe^3+; format: cell-based, mouse; conditions: 300 μM Fe^3+ 6 days, then 50 μM LA or 100 nM vitD 6 more days, p<0.05
ERK/MAPK [14] = experiment: ERK/MAPK activity (ELISA) in astrocytes pre-treated with Fe^3+; format: cell-based, mouse; conditions: 300 μM Fe^3+ 6 days, then treatment another 6 days, p<0.05
[15] = tested on: blood-brain barrier (BBB) experimental model; experiment: Blood-brain barrier (BBB) experimental model permeability (astrocytes/HUVEC Transwell co-culture); conditions: 1440 min; 100 nM vitD, 50 μM LA alone

| Structure (SMILES) | cell viability, maximum effect with respect to the control (astrocytes [5]) | cell viability after post-treatment (in words) (astrocytes [6]) | reduction of production of ROS with respect to H2O2 alone (astrocytes [7]; 50 μM LA, 100 nM vitD) | mitochondrial potential without H2O2 (in words) (astrocytes [8]) | dissipation of the mitochondrial potential after post-treatment, with respect to H2O2 alone (in words) (astrocytes [8]) | activity of p53 without H2O2 vs control (in words) (p53 [9]) | activity of p53 after H2O2 (in words) (p53 [9]) | expression of cytochrome C without H2O2 (in words) (cytochrome C) | expression of cytochrome C after H2O2 (in words) (cytochrome C) | expression of SOD3 with respect to 200 μM of H2O2 (in words) (SOD3 [10]) | expression of iNOS with respect to 200 μM of H2O2 (in words) (iNOS) | expression of PKA without H2O2 (in words) (PKA) | expression of PKA after H2O2 (in words) (PKA) | ERK/MAPK activity without H2O2 (in words) (ERK/MAPK [11]) | ERK activity after post-treatment following H2O2 (in words) (ERK/MAPK [11]) | PI3K-Akt activity without H2O2 (in words) (PI3K-Akt) | Akt activity after post-treatment following H2O2 (in words) (PI3K-Akt) | cell viability after post-treatment following Fe^3+ (in words) (astrocytes [1]) | reduction of production of ROS with respect to Fe^3+ alone (astrocytes [2]) | reduction of accumulation of iron against Fe^3+ alone (astrocytes [3]) | further results |
| --- | --- | --- | --- | --- | --- | --- | --- | --- | --- | --- | --- | --- | --- | --- | --- | --- | --- | --- | --- | --- | --- |
| [Fe+3] [Fe^3+] |  |  |  |  |  |  |  |  |  |  |  |  |  |  |  |  |  |  |  |  | reduction of cell viability with respect to the control (astrocytes [1]; 300 μM Fe^3+, 6 days): about 23%; increase of production of intracellular ROS with respect to the control (astrocytes [2]; 300 μM Fe^3+, 6 days): about 60%; increase of intracellular iron accumulation with respect to the control (astrocytes [3]; 300 μM Fe^3+, 6 days): about 69%; increase of level of APP with respect to the control ([4]; 300 μM Fe^3+, 6 days): about 43% |
| C=C1CC[C@H](O)C/C1=C/C=C1\CCC[C@]2(C)[C@@H]([C@H](C)CCCC(C)C)CC[C@@H]12 [vitD, cholecalciferol] | about 22% | cell viability increased significantly | ~57% | significant increase of the red fluorescence | significantly inverted | reduction of the activity of p53 | reduced it significantly | results similar to those obtained for p53 | reduced | significantly reduced | significantly reduced | significant increase | restored the mechanism | activating ERK and Akt mediators | nullified the effects observed previously | activating ERK and Akt mediators | nullified the effects observed previously | cell viability leads to control values | ~83% | ~88% | reduction of activation of p53 with respect to 300 μM Fe^3+ (p53 [12]): ~88%; reduction of level of APP against 300 μM Fe^3+ [4]: ~55%; expression of SOD3 after Fe^3+ (in words) (SOD3 [13]): reduced; activation of ERK/MAPK with respect to 300 μM Fe^3+ (in words) (ERK/MAPK [14]): significant reduction; absorption capacity through the blood-brain barrier (basolateral volume analysis) with respect to the control [15]: about 49.5% |
| OO [H2O2] |  |  |  |  |  |  |  |  |  |  |  |  |  |  |  |  |  |  |  |  | reduction of cell viability with respect to the control (astrocytes [6]; 200 μM H2O2): 46%; increase of production of intracellular ROS with respect to the control (astrocytes [7]; 200 μM stressor alone): about 30%; reduction of activity of ERK with respect to the control (ERK/MAPK [11]; 200 μM H2O2): about 6%; reduction of activity of Akt with respect to the control (PI3K-Akt; 200 μM H2O2): ~7% |
| O=C(O)CCCCC1CCSS1 (racemic) [LA, alpha-lipoic acid] | about 66% | cell viability increased significantly | about 43% | significant increase of the red fluorescence | significantly inverted | reduction of the activity of p53 | reduced it significantly | results similar to those obtained for p53 | reduced | significantly reduced | significantly reduced | significant increase | restored the mechanism | activating ERK and Akt mediators | nullified the effects observed previously | activating ERK and Akt mediators | nullified the effects observed previously | cell viability leads to control values | about 68% | about 81% | production of ROS without H2O2 (in words) (astrocytes [7]; 50 μM LA, 100 nM vitD, no H2O2, p>0.05 vs control): maintaining the production of ROS below the physiological level; reduction of activation of p53 with respect to 300 μM Fe^3+ (p53 [12]): about 84%; reduction of level of APP against 300 μM Fe^3+ [4]: about 63%; expression of SOD3 after Fe^3+ (in words) (SOD3 [13]): reduced; activation of ERK/MAPK with respect to 300 μM Fe^3+ (in words) (ERK/MAPK [14]): significant reduction; absorption capacity through the blood-brain barrier (basolateral volume analysis) with respect to the control [15]: ~40.5% |
